Measurements taken from patent US20190307741A1, “[…] PD1 AND/OR PDL1 INHIBITOR AS PHARMACEUTICAL COMBINATION” (priority 2016, published 2019).

System: orthotopic MBT-2 mouse bladder tumors
Assay: Antitumour activity (survival) in C3H/HEJ mice bearing orthotopic MBT-2 mouse bladder tumors
Type: in vivo
Details: female C3H/HeJ mice, vinflunine ditartrate 12 mg/kg IP (Q2D×3)×2W
Method: The antitumour activity of vinflunine alone or in combination with an anti-PD1 antibody was evaluated in C3H/HEJ mice bearing orthotopic MBT-2 mouse bladder tumors.
Vinflunine ditartrate is administered to mice at a concentration of 1.2 mg/ml in a saline buffer (0.9% NaCl).
The anti-PD1 antibody (clone: RMP1-14, catalog: BE0146, B/N: 5311-10/0914B, Bioxcell), is administered to mice at a concentration of 1 mg/ml in PBS. […] 2005 Aug. 1; 175(3):1586-92.
Vinflunine ditartrate has been injected at 12 mg/kg,
The anti-PD1 antibody has been injected at 10 mg/kg/inj.
Vinflunine ditartrate and the anti-PD1 antibody have been administered at a dose volume of 10 ml/kg/adm (i.e for one mouse weighing 20 g, 200 μl has been administered).
Vinflunine ditartrate has been injected intraperitoneally (IP) into the peritoneal cavity of mice.
The anti-PD-1 antibody has been injected intraperitoneally (IP) into the peritoneal cavity of mice. […]
Tumor cells have been e grown as monolayer at 37° C. in a humidified atmosphere (5% CO2, 95% air). […] The cells have been counted in a hemocytometer and their viability has been assessed by 0.25% trypan blue exclusion assay. […]
Antitumour activity of vinflunine ditartrate alone, anti-PD1 antibody alone or of the combination was evaluated against MBT-2 cells orthotopically implanted by instillation C3H/HEJ mice. […]

20′,20′-difluoro-3′,4′-dihydrovinorelbine [vinflunine]
ILS: Increase of Life Span (compared to vehicle) (%) (ILS=T/C−100 (median day of death treated/control), anti-PD1 10 mg/kg/inj IP TW×2): 46%
Survival gain (compared to vehicle) Median (anti-PD1 antibody 10 mg/kg/inj IP TW×2, treatment from D3, relative to vehicle): 10 days
